In article PMC9775652, “Concomitant Administration of Red Ginseng Extract with Lactic Acid Bacteria Increases the Plasma Concentration of Deglycosylated Ginsenosides in Healthy Human Subjects” (Biomolecules, 2022):
Like-named read-outs stand apart in the source and are kept apart here.

Assays:
P-gp = target: T1, P-gp (Homo sapiens, UniProt P08183); experiment: Transport of ginsenosides in P-gp-overexpressing LLC-PK1-P-gp cells; type: in vitro ADME
T1 construct: host or cells: LLC-PK1-P-gp cells (passage no. 25–28)
Method: LLC-PK1-P-gp cells (passage no. 25–28) were seeded onto collagen-coated permeable support (1.0 μm pore size) in 24-well plates at a density of 2.5 × 10^4 cells/insert and grown for 5 days with TEER values of over 500 Ω·cm^2 [24]. The A to B transport and B to A transport of GRg3, GRh2, CK, PPD, GRg1, GRh1, and PPT (20 μM each) were measured as previously described. The concentration dependency in the B to A transport of GRh2, CK, PPD, and PPT was measured in the range of 6.25–200 μM for GRh2, CK, PPD, and PPT.
(§1) For the transport study of ginsenosides in CaCo-2 cells and LLC-PK1-P-gp cells, the ginsenoside transport rate in the A to B or B to A directions was calculated from the slope of the regression line from the mean transported amounts versus time plot. The apparent permeability (Papp) was calculated using Equation (1). (1) Papp (×10^−6 cm/s)=transport rate (nmol/min)/concentration(μM)×area(cm^2)×60s
(§2) The efflux ratio was calculated by dividing the Papp of ginsenosides from the B to A direction by that from the A to B direction.
To measure the kinetic parameters of the concentration dependence on the P-gp-mediated ginsenoside efflux, the ginsenoside transport rate in the B to A direction (ν) versus the ginsenoside concentration (S) plot was fitted in the Michaelis–Menten Equation (2) using Sigma Plot (version 12.0, Systat Software Inc. Chicago, IL, USA). (2) ν=Vmax×S/Km+S

[1] = parameters: method as in PMID 34575573; conditions: mice, LAB supplementation (Lacto-fit) for two weeks; cited from earlier work
[2] = Transport (permeability) of ginsenosides in CaCo-2 cell monolayers; type: in vitro ADME; conditions: human
Method: CaCo-2 cells (passage no 41–43) were seeded onto collagen-coated permeable support (1.0 μm pore size) in a 24-well plate at a density of 2.5 × 10^4 cells/insert and cultured for 21 days in Dulbecco’s modified eagle’s medium supplemented with 10% fetal bovine serum, 1% non-essential amino acids, and 1% penicillin-streptomycin at 37 °C in a humidified atmosphere (5% CO2/95% air). After confirming that the transepithelial electrical resistance (TEER) of the CaCo-2 cell monolayer was over 400 Ω·cm^2, Apical to basal (A to B) transport and B to A transport of ginsenosides using 50 µM, GRb1 was investigated as previously described. The same permeability study was performed using 50 µM GRb2, GRc, GRd, GRg3, GRh2, GF2, CK, PPD, GRe, GRf, GRg1, GRh1, GF1, or PPT.
as §1, §2

[3] = Pharmacokinetic study of ginsenosides in healthy humans after repeated oral RGE with or without LAB; type: in vivo, human; conditions: male, human, in vivo, po; for AUC: 104.1 mg
Method: A single-sequence study consisting of two periods was conducted on five healthy male subjects (body weight > 50 kg and age > 19 years) for 29 days. During the first period of the study (RGE treatment group), three pouches of RGE (30 mL, 104.1 mg of total ginsenosides) were administered to 5 subjects once daily for 14 days. On the 14th day, the subjects were admitted to the Clinical Trial Center of KNUH at 7 AM and underwent the last RGE administration at approximately 8–9 AM. Blood samples (approximately 3 mL) were collected at 0, 4, 6, 8, 10, 12, 13, 14, and 24 h after the last dose. A saline-locked angiocatheter was placed on the forearm of each subject’s hand. After discarding 1 mL of blood derived from the catheter, 3 mL of blood was drawn into a vacutainer tube containing heparin and centrifuged at 3000× g for 10 min. The supernatant plasma samples were stored at −80 °C until ginsenoside analysis.
In the second half of the study (RGE + LAB treatment group), 3 pouches of RGE (30 mL, 104.1 mg of total ginsenosides) and 1 pouch of LAB (1 billion CFU/2 g) were co-administered once daily for 14 days. On the […], the subjects were admitted to the Clinical Trial Center of KNUH at 7 AM and received the last red ginseng dose at approximately 8–9 AM. Blood samples (approximately 3 mL) were withdrawn at 0, 4, 6, 8, 10, 12, 13, 14, and 24 h intervals after the last dose and centrifuged at 3000× g for 10 min; the supernatant plasma samples were stored at −80 °C.
Briefly, to analyze GRb1, GRb2, GRc, GRd, GRe, GRf, GRg1, GRg3, GF1, and GF2, 400 μL of an internal standard (IS; 0.05 ng/mL berberine in methanol) was added to 100 μL of plasma. The mixture was vortexed for 15 min and centrifuged at 16,000× g for 5 min. After centrifugation, 400 μL of the supernatant was evaporated using a speed-dry vacuum concentrator (Christ, Osterode am Harz, Germany). The residue was reconstituted using 200 μL of 70% methanol supplemented with 0.1% formic acid, and a 10 μL aliquot was injected into the LC-MS/MS system. Chromatographic separation was performed using a Polar RP column (150 × 2.0 mm, 4.0 μm particle size; Phenomenex, Torrance, CA, USA) using a mobile phase consisting of 0.1% formic acid in water (phase A) and 0.1% formic acid in methanol (phase B). The following elution gradient was used: 69% of phase B for 0–2.0 min, 69–85% of phase B for 2.0–4.0 min, and 85–69% of phase B for 6.0–6.5 min. The flow rate was 0.27 mL/min.
The mixture was vortexed for 10 min and centrifuged at 16,000× g for 5 min. After centrifugation, the samples were frozen at −80 °C for 4 h. The upper layer was transferred to a clean tube and evaporated. The residue was reconstituted using 200 μL of 80% methanol supplemented with 0.1% formic acid, and a 10 μL aliquot was injected into the LC-MS/MS system. Chromatographic separation was performed using a Luna C18 column (150 × 2.0 mm, 3.0 μm particle size; Phenomenex, Torrance, CA, USA) and using a mobile phase consisting of water containing 0.1% formic acid: methanol containing 0.1% formic acid = 8:92 (v/v) at a flow rate of 0.15 mL/min.
The quantification of ginsenosides was carried out using multiple reaction monitoring in positive ionization mode, as previously described.
Finally, pharmacokinetic parameters were calculated using non-compartmental methods (WinNonlin version 5.1; Pharsight Co., Certara, NJ, USA). Statistical analysis was performed by Student’s t-test to compare the two groups using IBM SPSS Statistics for Windows (version 25.0; IBM Corp., Armonk, NY, USA). Differences were considered significant at p < 0.05.

LAB [4] = experiment: In vitro RGE fermentation with LAB; type: in vitro ADME; conditions: RGE incubated with LAB (1 billion CFU) for 7 days at 37 °C; result in words
Method: (§3) To identify the effects of LAB on ginsenoside metabolism, an in vitro fermentation study was performed according to the method of Jeon et al., with slight modifications. Briefly, RGE (10 mL, 1 pouch) and 2 g LAB (containing 1 billion CFU) were suspended in 10 mL autoclaved MRS broth (550 mg broth powder dissolved in 10 mL water). For the 15 ginsenosides, individual ginsenosides (10 μM each) and 2 g of LAB were suspended in 20 mL of autoclaved MRS broth (550 mg broth powder dissolved in 20 mL water). The mixture was incubated for 7 days in a shaking incubator at 37 °C and 300 rpm, and a 0.1 mL aliquot of the incubation mixture was collected on days 0, 3, 5, and 7. The incubation medium was diluted 100-fold with distilled water and stored at −80 °C to analyze ginsenosides using the LC-MS/MS system.
(§4) To measure the metabolic activity of ginsenosides, the formation rate of ginsenosides (pmol/day) was calculated by dividing the slope of the regression line by the amount of deglycosylated ginsenosides versus the incubation time plot by the initial concentration of individual ginsenosides.

[5] = rat, in vivo, po; cited from earlier work
LAB [6] = experiment: Incubation of individual ginsenosides with LAB (metabolic pathway); type: in vitro ADME; conditions: individual ginsenoside 10 μM with LAB (1 billion CFU), 7 days; GF2 to CK, CK to PPD, GRg1 to GRh1; result in words
Method: as §3, §4

T1 sequence (P08183 whole entry): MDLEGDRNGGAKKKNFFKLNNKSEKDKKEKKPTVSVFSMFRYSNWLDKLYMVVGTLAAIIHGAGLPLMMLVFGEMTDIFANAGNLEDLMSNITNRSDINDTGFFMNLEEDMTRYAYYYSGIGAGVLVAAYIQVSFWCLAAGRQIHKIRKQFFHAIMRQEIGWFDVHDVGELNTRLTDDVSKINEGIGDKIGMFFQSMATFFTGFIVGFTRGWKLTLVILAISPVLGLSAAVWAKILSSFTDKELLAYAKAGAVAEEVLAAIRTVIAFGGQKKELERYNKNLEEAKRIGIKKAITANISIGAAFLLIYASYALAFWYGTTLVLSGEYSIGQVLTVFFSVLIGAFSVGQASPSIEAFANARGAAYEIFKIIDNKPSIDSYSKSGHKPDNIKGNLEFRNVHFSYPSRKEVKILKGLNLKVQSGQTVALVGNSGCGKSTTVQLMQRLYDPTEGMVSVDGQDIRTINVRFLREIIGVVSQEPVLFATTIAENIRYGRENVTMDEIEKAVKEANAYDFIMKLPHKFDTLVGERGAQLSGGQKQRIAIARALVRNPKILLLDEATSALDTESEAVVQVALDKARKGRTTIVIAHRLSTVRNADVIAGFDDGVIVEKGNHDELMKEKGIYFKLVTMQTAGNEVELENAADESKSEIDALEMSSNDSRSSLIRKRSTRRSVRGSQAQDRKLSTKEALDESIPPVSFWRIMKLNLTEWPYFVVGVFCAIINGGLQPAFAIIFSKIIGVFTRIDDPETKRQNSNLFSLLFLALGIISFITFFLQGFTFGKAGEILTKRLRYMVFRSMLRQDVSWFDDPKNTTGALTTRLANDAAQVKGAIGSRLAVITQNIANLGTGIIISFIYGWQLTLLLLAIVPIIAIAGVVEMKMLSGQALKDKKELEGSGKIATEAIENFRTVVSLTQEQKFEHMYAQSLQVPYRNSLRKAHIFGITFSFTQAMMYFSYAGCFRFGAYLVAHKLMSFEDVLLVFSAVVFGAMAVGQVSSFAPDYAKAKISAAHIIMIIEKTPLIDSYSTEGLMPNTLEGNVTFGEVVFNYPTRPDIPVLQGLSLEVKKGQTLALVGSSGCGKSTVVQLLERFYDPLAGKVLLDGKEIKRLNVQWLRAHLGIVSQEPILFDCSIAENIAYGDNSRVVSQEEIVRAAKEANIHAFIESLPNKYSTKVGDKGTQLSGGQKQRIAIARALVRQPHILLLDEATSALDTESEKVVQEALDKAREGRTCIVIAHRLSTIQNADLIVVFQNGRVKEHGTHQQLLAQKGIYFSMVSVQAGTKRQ

CC(C)=CCCC(C)(O)C1CCC2(C)C1C(O)CC1C3(C)CCC(O)C(C)(C)C3CCC12C (stereo not shown) [PPD, 20(s)-protopanaxadiol]
CLint (intrinsic clearance) (P-gp; P-gp-mediated B to A transport in LLC-PK1-P-gp cells): 5.2 µL/min | efflux ratio at 20 μM (P-gp; pig, LLC-PK1, LLC-PK1-P-gp cells, 20 μM, B to A Papp divided by A to B Papp, read-out: ER): 3.3 | Papp A→B at 20 μM (P-gp; pig, LLC-PK1-P-gp cells, 20 μM, mean ± SD, n = 3, read-out: A to B permeability): 0.13 ± 0.01 ×10⁻⁶ cm/s | Papp B→A at 20 μM (P-gp; pig, LLC-PK1-P-gp cells, 20 μM, mean ± SD, n = 3, read-out: B to A permeability): 0.42 ± 0.04 ×10⁻⁶ cm/s | AUC fold increase with LAB supplementation compared to control groups [1]: 2.67 fold | efflux ratio at 50 µM ([2]; Caco-2, Efflux ratio (ER)): 2.7 | AUC [3]: 130 ± 39.9 ng·h/mL | Cmax ([3]; Cmax): 7.6 ± 1.7 ng/mL | MRT [3]: 18.6 ± 5 h | Tmax [3]: 16 ± 18.5 h | Relative abundance / metabolic activity following fermentation of RGE with LAB (LAB [4]): significantly increased | Oral BA [5]: 36.8–48.1% | Oral bioavailability (BA) [5]: 36.8–48.1%

CC(C)=CCCC(C)(OC1OC(CO)C(O)C(O)C1O)C1CCC2(C)C1C(O)CC1C3(C)CCC(OC4OC(CO)C(O)C(O)C4O)C(C)(C)C3CCC12C (stereo not shown) [GF2]
Papp A→B at 50 µM ([2]; Caco-2): < 0.3 ×10⁻⁶ cm/s | Relative abundance / metabolic activity following fermentation of RGE with LAB (LAB [4]): remained unchanged | LAB-mediated deglycosylation (formation of deglycosylated ginsenoside from the incubated ginsenoside) (LAB [6]): negligible

CC(C)=CCCC(C)(OC1OC(CO)C(O)C(O)C1O)C1CCC2(C)C1C(O)CC1C3(C)CCC(O)C(C)(C)C3CCC12C (stereo not shown) [CK, compound K]
Papp A→B at 20 μM (P-gp; pig, LLC-PK1): 0.14 ×10⁻⁶ cm/s | Papp B→A at 20 μM (P-gp; pig, LLC-PK1): 8.25 ± 0.58 ×10⁻⁶ cm/s | CLint (intrinsic clearance) (P-gp; pig, llc-pk1): 690 µL/min | Cmax [3]: 5.1 ± 2.2 ng/mL | AUC [3]: 57.9 ± 16.6 ng·h/mL | MRT [3]: 17.2 ± 4.5 h | Tmax [3]: 8 ± 4 h | LAB-mediated deglycosylation (formation of deglycosylated ginsenoside from the incubated ginsenoside) (LAB [6]): the highest | Oral BA [5]: 4.3%
